# Key:
# CBP [1] = biological target: T1, CBP (Homo sapiens, UniProt Q92793); experiment: DSF (ΔTm) thermal stability assay; type: binding; conditions: compound concentration 10 μM; mean ± SEM (number of measurements)
# CBP [2] = biological target: T1, CBP; experiment: Isothermal titration calorimetry (ITC); conditions: for ITC 9T∆S, CBP: At T = 298.15 K
# BRD4(1) [3] = biological target: T2, BRD4(1) (Homo sapiens, UniProt O60885); experiment: Isothermal titration calorimetry (ITC); conditions: for ITC 9T∆S, BRD4(1): At T = 298.15 K; for Selectivity for CBP over BRD4(1): from ITC Kd values
# BRD4(1) [4] = biological target: T2, BRD4(1); experiment: DSF (ΔTm) thermal stability assay; type: binding; conditions: compound concentration 10 μM; mean ± SEM (number of measurements)
# CBP [5] = biological target: T1, CBP; experiment: Peptide displacement AlphaScreen; type: binding; conditions: mean ± SEM (number of measurements); read-out: CBP AlphaScreen pIC50 (converted)
# [6] = system: GFP-tagged 3 × CBP BRD construct; experiment: Fluorescence recovery after photo-bleaching (FRAP) assay; conditions: HeLa cells, DMSO + SAHA, no BRD inhibitor
# T1 sequence (Q92793 1085-1192 limits assumed): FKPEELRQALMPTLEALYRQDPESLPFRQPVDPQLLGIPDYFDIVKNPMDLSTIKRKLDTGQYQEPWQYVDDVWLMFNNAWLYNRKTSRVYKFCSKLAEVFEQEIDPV
SMILES,ΔTm at 10 µM (CBP [1]),"ITC N (molar binding ratio of the ligand-protein interaction), CBP (CBP [2])","ITC ∆G, CBP (CBP [2])","ITC ∆H, CBP (CBP [2])","ITC 9T∆S, CBP (CBP [2])","Kd (CBP [2]; ITC Ka, CBP)","ITC N (molar binding ratio of the ligand-protein interaction), BRD4(1) (BRD4(1) [3])","ITC ∆G, BRD4(1) (BRD4(1) [3])","ITC ∆H, BRD4(1) (BRD4(1) [3])","ITC 9T∆S, BRD4(1) (BRD4(1) [3])","Kd (BRD4(1) [3]; ITC Ka, BRD4(1))","ITC Ka, BRD4(1) (BRD4(1) [3])",Selectivity for CBP over BRD4(1) (BRD4(1) [3]),"Kd (BRD4(1) [3]; ITC Kd BRD4(1), 15 °C)","Kd (CBP [2]; ITC Kd CBP, 15 °C)",ΔTm at 10 µM (BRD4(1) [4]),IC50 (CBP [5]),"FRAP half-time of fluorescence recovery (t1/2), GFP-tagged 3× CBP BRD [6]"
COc1ccc(CCc2nc3cc(-c4c(C)noc4C)ccc3n2CCN2CCOCC2)cc1 [Compound 26],8.1 °C,–,–,–,–,–,–,–,–,–,–,–,–,–,–,–,–,–
Cc1noc(C)c1-c1ccc2c(c1)nc(CCc1cccc(F)c1)n2CCN1CCOCC1 [Compound 30],7.1 °C,–,–,–,–,–,–,–,–,–,–,–,–,–,–,–,–,–
Cc1noc(C)c1-c1ccc2c(c1)nc(CCc1ccc(F)cc1)n2CCN1CCOCC1 [Compound 31],–,0.887 ± 0.00152,-9.98 kcal/mol,-9.63 ± 0.0319 kcal/mol,-0.346 kcal/mol,27.7 nM,0.674 ± 0.00495,-8.35 kcal/mol,-8.02 ± 0.0815 kcal/mol,-0.331 kcal/mol,478 nM,–,–,–,–,–,–,–
COc1ccc(CCc2nc3cc(-c4c(C)noc4C)ccc3n2CCN2CCOCC2)cc1Cl [Compound 32],9 °C,1.18 ± 0.00143,-10.1 kcal/mol,-10.8 ± 0.0290 kcal/mol,0.760 kcal/mol,22.3 nM,0.604 ± 0.00325,-8.32 kcal/mol,-9.99 ± 0.0746 kcal/mol,1.670 kcal/mol,–,2.26 ± 0.121 106 M91,17-fold,–,–,–,–,–
COc1ccc(CCc2nc3cc(-c4c(C)noc4C)ccc3n2CCN2CCOCC2)cc1F [Compound 33],9.6 °C,–,–,–,–,–,–,–,–,–,–,–,20-fold,440 ± 25 nM,–,–,–,–
Cc1noc(C)c1-c1ccc2c(c1)nc(CCc1nc3ccccc3s1)n2CCN1CCOCC1 [Compound 35],–,0.703 ± 0.00135,-9.94 kcal/mol,-9.30 ± 0.0342 kcal/mol,-0.638 kcal/mol,30.2 nM,0.645 ± 0.00594,-8.10 kcal/mol,-9.34 ± 0.118 kcal/mol,1.240 kcal/mol,662 nM,–,–,–,–,–,–,–
Cc1noc(C)c1-c1ccc2c(c1)nc(CCn1ccc3ccccc31)n2CCN1CCOCC1 [Compound 36],8.9 °C,–,–,–,–,–,–,–,–,–,–,–,22-fold,660 ± 55 nM,30 ± 2.1 nM,–,–,–
COc1ccc(CCc2cc3cc(-c4c(C)noc4C)ccc3n2CCN2CCOCC2)cc1Cl [Compound 40],2 °C,–,–,–,–,–,–,–,–,–,–,–,–,–,–,< 1 °C,–,–
Cc1noc(C)c1-c1ccc(NC[C@H](C)N2CCOCC2)c([N+](=O)[O-])c1 [Compound 57],–,0.983 ± 0.00535,-8.50 kcal/mol,-14.0 ± 0.0994 kcal/mol,5.72 kcal/mol,368 nM,1.04 ± 0.0101,-7.78 kcal/mol,-8.50 ± 0.108 kcal/mol,0.725 kcal/mol,1210 nM,–,–,–,–,–,–,–
Cc1noc(C)c1-c1ccc2c(c1)nc(CCn1ccc3ccccc31)n2C[C@@H](C)N1CCOCC1 [Compound 60],–,0.88 ± 0.00202,-10.0 kcal/mol,-9.59 ± 0.0406 kcal/mol,-0.420 kcal/mol,26.2 nM,0.84 ± 0.0113,-8.30 kcal/mol,-7.46 ± 0.127 kcal/mol,-0.844 kcal/mol,532 nM,–,–,–,–,–,–,–
Cc1noc(C)c1-c1ccc2c(c1)nc(CCn1ccc3ccccc31)n2C[C@H](C)N1CCOCC1 [Compound 61],~10 °C,1.01 ± 0.00517,-8.58 kcal/mol,-12.5 ± 0.0855 kcal/mol,3.94 kcal/mol,239 nM,0.862 ± 0.00663,-8.09 kcal/mol,-9.21 ± 0.0912 kcal/mol,1.12 kcal/mol,685 nM,–,20-fold,530 ± 74 nM,26 ± 2.6 nM,–,< 100 nM,–
COc1ccc(CCc2nc3cc(-c4c(C)noc4C)ccc3n2C[C@@H](C)N2CCOCC2)cc1F [Compound 62],–,1.08 ± 0.0029,-9.71 kcal/mol,-11.1 ± 0.0496 kcal/mol,1.37 kcal/mol,39.4 nM,0.859 ± 0.00961,-8.17 kcal/mol,-9.15 ± 0.128 kcal/mol,0.978 kcal/mol,606 nM,–,–,–,–,–,–,–
COc1ccc(CCc2nc3cc(-c4c(C)noc4C)ccc3n2C[C@H](C)N2CCOCC2)cc1F [Compound 63],~10 °C,–,–,–,–,–,–,–,–,–,–,–,16-fold,610 ± 54 nM,39 ± 2.9 nM,–,< 100 nM,–
"O=C(CCCCCCC(=O)Nc1ccccc1)NO [SAHA, reference compound]",–,–,–,–,–,–,–,–,–,–,–,–,–,–,–,–,–,0.79 s
